Measured values: patent US7807162B2, “Single domain VHH antibodies against von Willebrand factor” (Ablynx N.V., priority 2005, dated 2010)
Values joined by “and” are separate entries in the source; they are usually repeats but may differ in a detail not shown here. Equal values may be shown once.

Columns and labels:
[1] = tested on: cyclic flow reductions (CFRs) in injured, stenosed femoral artery; assay: Folts model in baboons: Aspegic-Heparin-Plavix combination with ALX-0081 on top; type: in vivo, baboon (Papio ursinus)
Procedure: Extra Heparin was administered at different time points to sustain a certain level (aPTT should be at least doubled versus control). […] The anti-thrombotic effect was quantified by comparing the length of CFRs before and after drug administration. When full inhibition of CFRs was observed, a new injury was applied. Epinephrin was injected and continued till the end of the experiment. […] (1), 3, 10 or 30 μg/kg. […] The specifications of the baboons that were used in this study are represented in table 49.

ADAMTS-13 [2] = assay: Cleavage of recombinant A1-A2-A3 vWF fragment by ADAMTS-13 (Western Blot); type: biochemical, human; conditions: 10 μg/ml; normal pool plasma
Procedure: In a second type of experiment, different reaction mixtures were prepared as summarized in table 60, however, without the addition of the A1A2A3 construct. The A1A2A3 construct is a recombinant fragment consisting out of the A1, A2 and A3 domain of vWF. Mixtures were pre-incubated for 5 minutes at 37° C. after which the A1A2A3 fragment is added and the mixture is incubated in a waterbath overnight at 37° C. […] The blot was blocked for 2 hours at room temperature with blockbuffer (1:1 Odyssey blockbuffer in 1×TBS pH=7.4) and incubated with Rabbit polyclonal anti-vWF (DAKO). Alexa Fluor 680 goat anti-rabbit was used for detection. Scanning was done on the ODYSSEY to detect the degradation products.
In a second assay, a recombinant fragment containing the A1-A2-A3 domain of vWF was mixed with normal pool plasma (NPP) containing ADAMTS-13, resulting in proteolytic cleavage of the fragment which was observed by a Western Blot analysis.

ADAMTS-13 [3] = assay: Cleavage of ULvWF platelet strings by ADAMTS-13 (perfusion assay); type: cell-based, human
Procedure: ADAMTS-13 reduces the size of large and ultralarge VWF multimers to smaller forms by specifically cleaving the Y842/M843 peptide bond in the VWF A2 domain.
In a first experiment, strings were generated by a 4 minute perfusion of washed platelets resuspended in buffer over histamine-stimulated endothelial cells. Subsequently, the non-adhered platelets were washed away by a 4 minute perfusion of buffer. After that, buffer was perfused for an other 4 minutes, followed by a 4 minute perfusion of pooled normal plasma containing ADAMTS-13. Detachment of the platelet strings was observed after perfusion of pooled normal plasma (FIG. 43). More than 95% of the strings were cleaved after the 4 minute perfusion.
In a next experiment, strings were generated by a 4 minute perfusion of washed platelets resuspended in buffer over histamine-stimulated endothelial cells and the non-adhered platelets were washed away by a 4 minute perfusion of buffer as above.

[4] = tested on: cyclic flow reductions (CFRs) in injured, stenosed femoral artery; assay: Folts thrombosis model in baboons: length/inhibition of cyclic flow reductions (CFRs); type: in vivo, baboon (Papio ursinus); conditions: for Length of CFRs: individual baboons 16-24; for effective dose: Folts model
[5] = tested on: cyclic flow reductions (CFRs) in injured, stenosed femoral artery; assay: Use of vWF as an antidote for ALX-0081 in the baboon Folts model; type: in vivo, baboon (Papio ursinus)
Description: The experimental procedure followed the original Folts model with the modifications as described in the previous example 18.
Healthy male baboons (Papio ursinus) were used in this study. The animals were 9-12 kg of weight and were disease-free for at least 2 weeks prior to use. The baboons were fed with dry standard food only.

[6] = tested on: ristocetin-induced platelet aggregation; assay: Ristocetin-induced platelet aggregation (RIPA) ex vivo in blood of treated baboons
Procedure: Platelet aggregations were performed on a Chronolog whole blood and optical Aggregometer (Model 560CA, Chronolog, USA). PRP was prepared (collected on 0.38 mol/L citrate), by centrifuging the whole blood at 1200 rpm for 5 minutes. The upper fraction containing the PRP was carefully removed. The lower fraction was further centrifuged at 3000 rpm for 10 minutes to prepare platelet poor plasma (PPP). Platelets were counted in PRP and diluted in PPP to a final concentration of 200.000 platelets per microliter. 3 mg/ml ristocetin (DAKO) was added and aggregation was measured.
The GPIb-IX-V dependent platelet aggregation through vWF is measured using ristocetin as a modulator. The % aggregation is measured at each time point and at each dose.

[7] = number of experiments with inhibition / total number of independent repeats

## ALX-0081: ALX-0081 (SEQ ID NO:98), Nanobody; humanised bivalent nanobody with the 3a linker
[1]; at the effective dose of ALX-0081 on top of the combination
  CFRs upon a new injury: the CFRs did not return
[1]; on top of Aspegic, Heparin, Plavix, continued Epinephrin infusion, all seven baboons
  dose at which full inhibition of the CFRs was obtained: 0.03 mg/kg
[1]; on top of Aspegic/Heparin/Plavix combination: Epinephrin + effective dose ALX-0081, individual baboons 4-10
  Length of CFRs: >1800 s
ADAMTS-13 [2]
  effect on the cleavage of the A1-A2-A3 vWF fragment by ADAMTS-13: no effect
ADAMTS-13 [3]; ALX-0081 10 μg/ml
  effect on the cleavage of ULvWF strings by ADAMTS-13: does not have an effect
ADAMTS-13 [3]; ALX-0081 10 μg/ml (10-fold molar excess over vWF)
  strings cleaved after the 4 minute perfusion of pooled normal plasma: 95%
[4]; ALX-0081-treated, after Epinephrin
  Length of CFRs: >1200 s (2×) and >900 s (7×)
[4]; ALX-0081 final dose 3 μg/kg
  Length of CFRs: 295 s and 193 s and 144 s and 133 s and 183 s and 312 s and 112 s
[4]; ALX-0081 final dose 13 μg/kg
  Length of CFRs: 380 s and 913 s and >1800 s (2×) and 298 s and 237 s and 620 s and 525 s and 213 s
[4]; ALX-0081 final dose 43 μg/kg
  Length of CFRs: >1800 s
[4]; ALX-0081 final dose 133 μg/kg
  Length of CFRs: >1800 s
[4]
  effective dose: 30 µg/kg
[4]; inhibition of CFRs, final dose, ALX-0081: + […] dose/kg/hour
  effective dose: 13-43 μg/kg +
[4]; all baboons (nine)
  final dose at which full inhibition of CFRs was obtained: 0.043 mg/kg
[4]; all baboons (nine), bolus followed by 45 μg/kg/hour infusion
  dose at which full inhibition of CFRs was obtained: 0.03 mg/kg
[4]; baboons 17 and 22, bolus followed by 15 μg/kg/hour infusion
  dose at which full inhibition of CFRs was already obtained: 0.01 mg/kg
[4]; new injury applied at full inhibition of CFRs
  CFRs upon a new injury: Inhibition was retained
[4]; [7]
  Inhibition of CFRs: 9/9
  Inhibition of CFRs after administration of Epinephrin: 9/9
  Inhibition of CFRs after new injury: 9/9
[5]; 30 μg/kg + 45 μg/kg/hour ALX-0081, baboons 1-3
  Length of CFRs: >1800 s
[5]; all three baboons, bolus followed by 45 μg/kg/hour
  dose at which full inhibition of CFRs was obtained: 0.03 mg/kg
[5]; at 30 μg/kg+45 μg/kg/hour ALX-0081
  CFRs upon a new injury: the CFRs did not return
[6]; 3 mg/ml ristocetin
  relation between RIPA and the length of the CFRs: inverse relation
[6]; baboons 16, 18, 19 and 23
  dose for full inhibition in RIPA versus full inhibition of CFRs: full inhibition in the RIPA test is obtained at lower doses than full inhibition of CFRs
